This is an account of results in article PMC3552485 (ACS Chemical Biology, 2012).

The test has as its target T1, TarO (N-acetylglucosamine-1-phosphate transferase) (Staphylococcus aureus, UniProt Q2G060).
T1 sequence (Q2G060 1-351): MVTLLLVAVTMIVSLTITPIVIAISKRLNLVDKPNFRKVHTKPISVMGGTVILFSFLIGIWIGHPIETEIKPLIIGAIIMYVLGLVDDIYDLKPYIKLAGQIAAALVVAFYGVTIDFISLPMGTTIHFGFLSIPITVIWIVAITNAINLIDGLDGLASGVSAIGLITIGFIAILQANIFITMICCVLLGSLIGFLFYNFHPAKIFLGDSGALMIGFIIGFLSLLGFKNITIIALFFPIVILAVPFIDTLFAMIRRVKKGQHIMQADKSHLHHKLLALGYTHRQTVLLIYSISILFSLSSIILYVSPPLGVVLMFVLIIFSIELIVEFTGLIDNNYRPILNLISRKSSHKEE
Type of test: biochemical.

The structures appear in SMILES notation.

For orientation: IC50 means the concentration that gives 50% inhibition. Higher therefore signals lower potency. As for `Clc1ccccc1CN1CCc2sccc2C1` [ticlopidine], the IC50 is 238 ± 14 µM.
